Activity calls are given as the source filed them. The rule behind the calls is not given here.
How the values were obtained:
HCT-116 [1] = assay: Cell cycle arrest in human HCT-116 cells assessed as accumulation of cells at G2/M phase at 1 uM measured after 24 hrs by propidium iodide staining based flow cytometry (reference value: 22.74%); format: functional
Histone deacetylase 4 = Histone deacetylase 4 (Homo sapiens, UniProt P56524); assay: Inhibition of recombinant human N-terminal GST-fused/C-terminal His-tagged HDAC4 (627 to 1084 residues) expressed in baculovirus infected Sf9 insect cells using fluorogenic HDAC class 2a substrate measured after 30 mins by fluorimetry
Sequence of Histone deacetylase 4 (P56524 whole entry, the tested form may be a part): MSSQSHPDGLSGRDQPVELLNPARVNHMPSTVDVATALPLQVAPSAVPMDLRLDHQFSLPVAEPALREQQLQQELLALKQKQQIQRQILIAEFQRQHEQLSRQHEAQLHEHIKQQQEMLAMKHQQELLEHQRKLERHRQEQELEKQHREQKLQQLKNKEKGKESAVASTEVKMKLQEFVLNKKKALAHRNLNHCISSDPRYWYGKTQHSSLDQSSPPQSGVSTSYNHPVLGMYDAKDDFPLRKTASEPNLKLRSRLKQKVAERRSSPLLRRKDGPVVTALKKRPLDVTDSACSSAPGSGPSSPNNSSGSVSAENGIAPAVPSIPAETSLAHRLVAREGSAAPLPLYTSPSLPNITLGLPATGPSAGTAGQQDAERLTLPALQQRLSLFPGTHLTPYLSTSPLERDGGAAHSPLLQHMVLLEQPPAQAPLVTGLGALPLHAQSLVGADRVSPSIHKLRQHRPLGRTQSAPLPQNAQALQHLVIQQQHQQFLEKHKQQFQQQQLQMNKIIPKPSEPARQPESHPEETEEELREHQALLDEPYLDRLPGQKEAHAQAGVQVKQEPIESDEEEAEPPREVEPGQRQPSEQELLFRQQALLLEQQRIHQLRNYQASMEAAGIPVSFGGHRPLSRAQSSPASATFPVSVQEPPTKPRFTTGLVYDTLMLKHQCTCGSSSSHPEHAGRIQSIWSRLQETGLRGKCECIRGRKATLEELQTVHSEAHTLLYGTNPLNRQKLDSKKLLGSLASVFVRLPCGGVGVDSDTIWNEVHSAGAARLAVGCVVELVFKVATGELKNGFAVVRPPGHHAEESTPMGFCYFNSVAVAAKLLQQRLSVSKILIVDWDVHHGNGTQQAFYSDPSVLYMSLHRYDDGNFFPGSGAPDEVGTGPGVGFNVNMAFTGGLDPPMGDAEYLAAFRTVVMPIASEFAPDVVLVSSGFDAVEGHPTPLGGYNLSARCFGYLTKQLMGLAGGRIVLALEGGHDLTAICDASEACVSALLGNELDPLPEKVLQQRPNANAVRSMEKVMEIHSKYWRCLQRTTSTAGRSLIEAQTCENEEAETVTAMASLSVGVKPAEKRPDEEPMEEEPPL

MDA-MB-231 [2] = assay: Potency index, ratio of SAHA IC50 to test compound IC50 for antiproliferative activity against human MDA-MB-231 cells; format: functional
HCT-116 [3] = assay: Cell cycle arrest in human HCT-116 cells assessed as accumulation of cells at G0/G1 phase at 10 uM measured after 12 hrs by propidium iodide staining based flow cytometry (reference value: 58.05%); format: functional
[4] = Half life in human liver microsomes at 13.8 uM by HPLC analysis; format: ADME, Microsome
HCT-116 [5] = assay: Induction of cell morphological changes in human HCT-116 cells assessed as chromatin condensation at 0.5 to 5 uM measured after 24 hrs by Hoechst 33258 staining based fluorescence microscopy; format: functional; conditions: dose 0.5-5 µM
K562 = assay: cells; format: functional, cell-based; conditions: Homo sapiens, K562, 48 h
HCT-116 [6] = assay: Induction of apoptosis in human HCT-116 cells assessed as necrotic cells at 1 uM measured after 24 hrs by Annexin V-FITC/propidium iodide staining based flow cytometry (reference value: 7.39%); format: functional
MDA-MB-231 [7] = assay: Antiproliferative activity against human MDA-MB-231 cells measured after 48 hrs by MTT assay; format: functional, cell-based; conditions: MDA-MB-231, 48 h
HCT-116 [8] = assay: Induction of cell morphological changes in human HCT-116 cells assessed as cell vacuolization at 0.5 to 5 uM measured after 24 hrs by phase contrast microscopy; format: functional, cell-based; conditions: dose 0.5-5 µM
A549 = assay: cells; format: functional, cell-based; conditions: Homo sapiens, A549, 48 h
HCT-116 [9] = assay: Induction of cell morphological changes in human HCT-116 cells assessed as nuclear fragmentation at 0.5 to 5 uM measured after 24 hrs by Hoechst 33258 staining based fluorescence microscopy; format: functional; conditions: dose 0.5-5 µM
HCT-116 [10] = assay: Cell cycle arrest in human HCT-116 cells assessed as down regulation of cyclin D1 expression at 5 uM by Western blot analysis; format: functional, cell-based; conditions: time 6-48 hrs, TDE = time-dependent effect
HCT-116 [11] = assay: Cell cycle arrest in human HCT-116 cells assessed as increase in accumulation of cells at G0/G1 phase at 10 uM by propidium iodide staining based flow cytometry; format: functional; conditions: time 6-24 hrs, TDE = time-dependent effect
HCT-116 [12] = assay: Cell cycle arrest in human HCT-116 cells assessed as accumulation of cells at G2/M phase at 10 uM measured after 6 hrs by propidium iodide staining based flow cytometry (reference value: 22.74%); format: functional
SGC-7901 = assay: Antiproliferative activity against human SGC-7901 cells measured after 48 hrs by MTT assay; format: functional, cell-based; conditions: SGC-7901, 48 h
HCT-116 [13] = assay: Cell cycle arrest in human HCT-116 cells assessed as up regulation of p21 expression measured after 24 hrs by Western blot analysis; format: functional, cell-based; conditions: dose 0.1-10 µM, DDE = dose-dependent effect
HCT-116 [14] = assay: Induction of cell morphological changes in human HCT-116 cells assessed as cell fragmentation at 0.5 to 5 uM measured after 24 hrs by phase contrast microscopy; format: functional, cell-based; conditions: dose 0.5-5 µM
HCT-116 [15] = assay: Cell cycle arrest in human HCT-116 cells assessed as up regulation of Bax expression at 5 uM by Western blot analysis; format: functional, cell-based; conditions: time 6-48 hrs, TDE = time-dependent effect
[16] = target: Histone deacetylase 1/2/3 (Homo sapiens) (UniProt Q13547+O15379+Q92769); assay: Inhibition of HDAC1/HDAC2/HDAC3 in human HCT-116 cells assessed as increase in accumulation of acetylated H3K9 measured after 24 hrs by Western blot analysis; format: cell-based; conditions: dose 0.1-10 µM, DDE = dose-dependent effect
[17] = Half life in dog liver microsomes at 13.8 uM by HPLC analysis; format: ADME, Canis lupus familiaris, Microsome
HCT-116 [18] = assay: Cell cycle arrest in human HCT-116 cells assessed as accumulation of cells at G2/M phase at 0.5 uM measured after 24 hrs by propidium iodide staining based flow cytometry (reference value: 22.74%); format: functional
[19] = target: T1, Protein deacetylase HDAC6 (Homo sapiens, UniProt Q9UBN7); assay: Inhibition of recombinant human N-terminal GST-tagged HDAC6 (1 to 1215 residues) expressed in Sf9 insect cells using fluorogenic HDAC substrate 3 measured after 30 mins by fluorimetry
T1 sequence (Q9UBN7 whole entry): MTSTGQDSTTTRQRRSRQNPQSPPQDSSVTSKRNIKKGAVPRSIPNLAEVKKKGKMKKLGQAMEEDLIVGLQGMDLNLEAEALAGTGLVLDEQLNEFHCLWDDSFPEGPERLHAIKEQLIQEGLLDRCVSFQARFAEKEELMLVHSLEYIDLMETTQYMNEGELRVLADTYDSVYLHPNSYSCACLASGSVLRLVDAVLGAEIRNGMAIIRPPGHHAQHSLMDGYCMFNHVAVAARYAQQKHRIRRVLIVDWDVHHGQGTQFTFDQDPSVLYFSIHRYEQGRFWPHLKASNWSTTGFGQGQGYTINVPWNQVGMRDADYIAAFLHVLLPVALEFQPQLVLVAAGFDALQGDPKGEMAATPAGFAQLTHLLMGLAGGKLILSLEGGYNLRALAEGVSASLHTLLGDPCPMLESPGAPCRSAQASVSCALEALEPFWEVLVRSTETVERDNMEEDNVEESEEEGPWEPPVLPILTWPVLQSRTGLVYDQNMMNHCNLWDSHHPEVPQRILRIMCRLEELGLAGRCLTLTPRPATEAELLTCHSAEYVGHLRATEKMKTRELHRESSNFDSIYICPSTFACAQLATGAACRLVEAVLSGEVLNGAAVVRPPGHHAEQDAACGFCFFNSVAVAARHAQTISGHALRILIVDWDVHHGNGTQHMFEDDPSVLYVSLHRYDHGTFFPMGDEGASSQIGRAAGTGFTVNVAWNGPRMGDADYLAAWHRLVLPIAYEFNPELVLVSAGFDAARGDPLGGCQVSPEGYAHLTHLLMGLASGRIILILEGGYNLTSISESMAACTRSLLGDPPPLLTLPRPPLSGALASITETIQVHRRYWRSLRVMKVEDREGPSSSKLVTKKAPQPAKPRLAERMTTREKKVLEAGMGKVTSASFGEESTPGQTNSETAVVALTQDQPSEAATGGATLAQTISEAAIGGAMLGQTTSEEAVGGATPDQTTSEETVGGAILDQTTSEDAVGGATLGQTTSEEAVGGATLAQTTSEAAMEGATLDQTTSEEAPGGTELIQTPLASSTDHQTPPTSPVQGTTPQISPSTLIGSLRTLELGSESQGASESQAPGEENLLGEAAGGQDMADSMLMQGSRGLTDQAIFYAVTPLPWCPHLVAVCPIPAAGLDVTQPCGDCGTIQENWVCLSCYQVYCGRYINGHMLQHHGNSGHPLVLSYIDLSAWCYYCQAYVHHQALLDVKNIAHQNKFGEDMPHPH

CCCCNc1nc(Cl)nc2c1ncn2Cc1ccc(C(=O)Nc2ccccc2N)cc1
Activity (HCT-116 [1]): 15.43%
IC50 (Histone deacetylase 4): > 100000 nM
Ratio IC50 (MDA-MB-231 [2]): 4
Activity (HCT-116 [3]): 71.11%
half-life at 13.8 µM [4]: 4.62 h
Activity (HCT-116 [5]): Active
IC50 (K562): 120 nM
Activity (HCT-116 [6]): 1.2%
IC50 (MDA-MB-231 [7]): 380 nM
Activity (HCT-116 [8]): Active
IC50 (A549): 1650 nM
Activity (HCT-116 [9]): Active
Activity (HCT-116 [10]): Tde
Activity (HCT-116 [11]): Tde
Activity (HCT-116 [12]): 20.04%
IC50 (SGC-7901): 1520 nM
Activity (HCT-116 [13]): Dde
Activity (HCT-116 [14]): Active
Activity (HCT-116 [15]): Tde
inhibition [16]: Dde
half-life at 13.8 µM [17]: 3.73 h
Activity (HCT-116 [18]): 20.23%
IC50 [19]: 34200 nM
